# Measured values from the METLIN SMRT retention time set (Domingo-Almenara et al. 2019).
# Assay: gradient 5% acetonitrile 3 min, to 50% in 2 min, to 85% in 15 min, held 3 min, 100 µL/min
# Conditions: column: Zorbax Extend-C18 2.1 x 50 mm; eluents: water / acetonitrile, 0.1% formic acid
# Summary of the method: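 Retention times come from adduct peaks that were picked computationally and then checked by hand. The standards, pure and pooled in mixtures of ~100 molecules, were run on a Zorbax Extend-C18 column (2.1 × 50 mm, 1.8 μm) at 100 μL/min with water and acetonitrile, each with 0.1% formic acid. Detection was by quadrupole time-of-flight mass spectrometry in positive and negative ionization mode, with a dead volume of 40 μL and a dwell volume of 900 μL.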
row,RP-LC retention time [s],SMILES
1,880,CC1CCC(NC(=O)C2CCN(C(=O)c3ncn4c3COC(c3ccc(Cl)cc3)C4)CC2)CC1 (stereo not given)
2,694,O=C1CN(C(=O)CSc2ccccc2)c2ccccc2N1
3,836,COCCNC(=O)N1c2ccccc2CC1c1nc(C(C)C)no1 (stereo not given)
4,763,CSc1cccc(NC(=O)c2cn3c(n2)CSCC3)c1
5,606,O=C([C@@H]1COCC(=O)N1Cc1ccccc1)N1CCN(Cc2ccc3c(c2)OCO3)CC1
6,596,Cn1nnnc1SCCNCc1ccc(Cl)cc1Cl
7,576,CCS(=O)(=O)N1CCC(Cn2c(C)cnc2-c2ccccc2)C1 (stereo not given)
8,855,COC(=O)c1nnc2c(-c3ccc(F)cc3)c(C)nn2c1C
9,752,CSc1cccc(NC(=O)C2CCN(c3cnc4nccnc4c3)CC2)c1
10,1120,O=C(NC1CCCCCC1)c1nnn(Cc2ccccc2)c1-n1cccc1
11,1090,CCn1c(=O)c2cc(C(=O)Nc3ccc(C(F)(F)F)cc3)nn2c2ccccc21
12,1110,O=S(=O)(c1ccc(-c2noc(-c3ccccc3Br)n2)cc1)N1CCOCC1
13,711,COC(=O)c1cc(OCC(=O)Nc2ccccc2)c2cc(OC)c(OC)cc2n1
14,1310,Cc1cc(Cl)ccc1OCC(=O)Nc1nc(-c2cccc3ccccc23)cs1
15,785,O=C(c1cn(-c2cc(N3CCCCC3)ncn2)cn1)N1CCN(c2ncccn2)CC1
16,1200,O=C(NC1CCCCCC1)C1CCN(c2nc3ccccc3nc2C(F)(F)F)CC1
17,913,O=C(NCc1ccc(F)cc1Cl)C1=C2CCCN2c2ccccc2S1(=O)=O
18,736,CCn1cc(CN2CCC(C(=O)NCC3CCCCC3)CC2)c2cc(OC)ccc21
19,604,O=C(c1ccc(CS(=O)c2ccccc2Cl)o1)N1CCN(c2ccccn2)CC1 (stereo not given)
20,816,COCCN1C(=O)c2ccccc2C(C(=O)Nc2ccc3c(c2)OCO3)C12CCCC2 (stereo not given)
21,874,O=C(Nc1nc(-c2cccs2)cs1)c1ccc2ncsc2c1
22,659,CC(C)n1cnnc1CC1CCN(S(=O)(=O)Cc2ccccc2)C1 (stereo not given)
23,866,C[C@H]1CN(C(=O)Nc2ccc3c(c2)CCC3)C[C@@H]1c1nc(-c2cccnc2)no1

row,RP-LC retention time [s],SMILES
1,651,Cc1nc(C)c(C(=O)NCC23CCC=C2N(C)C(=O)CC3)s1 (stereo not given)
2,626,O=C(CCC[C@@H]1[C@H]2CCCN3CCC[C@@H](CN1C(=O)COc1ccc(Cl)cc1)[C@@H]23)N1CCOCC1
3,1290,Cn1nccc1-c1cccc(-c2noc(/C=C/c3ccccc3Cl)n2)c1
4,623,Cn1ccc(C(=O)Nc2sccc2C(N)=O)n1
5,590,CC(C)n1cnc2cc(CNC(=O)c3ccccn3)ccc21
6,754,COc1cccc2cc(C(=O)NCC3CCN(S(=O)(=O)C4CC4)CC3)oc12
7,988,COc1ccc(-c2noc(Cc3nnc(-c4cccc(Br)c4)o3)n2)cc1OC
8,638,O=c1c2cc(-c3ccc(F)cc3)nn2ccn1Cc1noc(CN2CCCC2)n1
9,742,COc1ccc(F)cc1S(=O)(=O)NCCOc1ccc(-c2ccco2)nn1
10,965,CCOC(=O)C1=C(C)NC2=C(C(=O)C(C(=O)OC)C(C)C2)C1c1cccc(Cl)c1 (stereo not given)
11,914,Cc1oc2ccn(C)c(=O)c2c1C(=O)NCc1ccccc1Br
12,590,Cn1cnc(S(=O)(=O)N2CC(c3nc(-c4ccncc4)no3)C2)c1
13,1060,COC(=O)c1sccc1NC(=O)Cn1c(C)cc(C)c(-c2nc(-c3ccccc3)no2)c1=O
14,668,Cc1ccc(C(=O)N2CCC(C(=O)N3CCCCCCNC(=O)CC3)CC2)s1
15,682,Cc1noc(C)c1S(=O)(=O)N1CCC(n2c(C)cnc2-c2ccccc2)CC1
16,684,COCCN1C(=O)Cc2ccccc2C1C(=O)NCc1ccccc1 (stereo not given)
17,830,O=C(C1=CN(c2ccc(Cl)cc2)c2cc(F)ccc2S1(=O)=O)N1CCOCC1
18,610,CC(C)c1nc2ccc(CCC(=O)NC(C)c3ccccc3)cc2[nH]1 (stereo not given)
19,712,Cc1ccc(C(=O)Nc2ccc3c(c2)CCC(=O)N3C)s1
20,596,Cc1nn2c(CNS(=O)(=O)c3c(C)nn(C)c3C)c(C)nc2s1
21,838,CC(=O)Nc1cccc(C2OC(c3c(OC(C)=O)ccc4ccccc34)=NN2C(C)=O)c1 (stereo not given)
22,606,CCn1c(=O)c(C(=O)NC2CCN(Cc3ccccc3)CC2)nc2cccnc21
23,639,CC(=O)NCc1nc(-c2ccc(S(=O)(=O)N3CCC(C(=O)N4CCCC4)CC3)cc2)no1

row,RP-LC retention time [s],SMILES
1,1180,CCOC(=O)C(=O)Nc1ccc(-c2nc(-c3cc(C)ccc3C)co2)cc1
2,613,CCNc1cc(C)nc(N2CCN(C(=O)CC(C)C)CC2)n1
3,1120,Cc1cc(C)n(-c2nc(CC(=O)Nc3nc(-c4ccccc4)cs3)cs2)n1
4,637,CCS(=O)(=O)N1CC(CC#N)(n2cc(-c3ncnc4[nH]ccc34)cn2)C1
5,699,COc1ccccc1N(CN1CCCC1=O)C(=O)COc1ccccc1
6,871,COCC(=O)N(CC(=O)N1CCc2sccc2C1COc1ccc(Cl)cc1)CC1CCCO1 (stereo not given)
7,1070,COCCCn1c(=O)c2ccccc2n(Cc2nc(-c3ccc(Cl)cc3)no2)c1=O
8,998,O=C(Nc1nc(-c2ccccc2)cs1)c1cncc(Br)c1
9,643,O=C(c1ccc2nc[nH]c2c1)N1CCCn2nc(-c3ccc(Cl)cc3)cc2C1
10,663,CCOC(=O)CCNC(=O)NCc1nnnn1-c1ccc(C)c(C)c1
11,802,O=C1CCCc2cc(S(=O)(=O)N3CCC(C(=O)N4CCc5ccccc54)CC3)ccc2N1
12,788,CCCCS(=O)(=O)N1CC(c2noc(-c3cccnc3)n2)C2(CCOCC2)C1 (stereo not given)
13,775,Cc1cc(C2CCCN2C(=O)Cc2ccc(F)cc2)no1 (stereo not given)
14,694,COc1cccc(C2CC(c3ccc(Br)cc3)=NC3(CCN(C(C)=O)CC3)N2)c1O (stereo not given)
15,827,COc1cc2c(cc1OC)C(C(=O)Nc1ccc(F)cc1F)C(c1cccs1)N(C)C2=O (stereo not given)
16,553,Cc1cnc(C(=O)N2CC(n3cc(COc4ccncc4)nn3)C2)cn1
17,619,O=C(CNC(=O)C1CCCCC1)Nc1nc2ccccc2[nH]1
18,1010,O=C(Nc1ccc(C(F)(F)F)cc1)c1cnc(-c2ccccc2)nc1-c1ccncc1
19,798,CC(=O)Nc1nsc(N2CCC(C(=O)NCc3ccc(F)cc3F)CC2)n1
20,713,CCn1c(C(=O)N2CCOCC2)cc2c(=O)oc3ccccc3c21
21,897,Cn1cccc1C(=O)N1CCC(COc2ccc(C(=O)N3CCCCC3)cc2)CC1
22,708,O=C(Nc1ccc(Cn2cncn2)cc1)c1ccc(Br)o1
23,993,c1cc(-c2nnc3sc(-c4csc5c4CCCC5)nn23)ccn1

row,RP-LC retention time [s],SMILES
1,847,O=C(CSc1nnc(-c2cccc(S(=O)(=O)N3CCOCC3)c2)o1)c1ccccc1
2,610,CCN1CCN(c2cc(C)c3cc(NC(=O)c4ccc(Br)cc4)ccc3n2)CC1
3,743,CCc1cc(=O)n(CC(=O)Nc2ccc(F)cc2F)c(N2CCOCC2)n1
4,927,O=C([C@@H]1C[C@H](F)CN1S(=O)(=O)c1cccc(Cl)c1)N1CCc2ccccc2C1
5,1120,CC(CNC(=O)c1cn(C)nc1S(=O)(=O)N1CCSCC1)c1ccccc1 (stereo not given)
6,1000,Cc1nc(-c2ccccc2)nc2c1CCC(=O)N2Cc1ccco1
7,947,Cc1ccc(C)c(S(=O)(=O)N2CCCN(c3ccc(=O)n(-c4ccccc4)n3)CC2)c1
8,915,COc1cc(C2C(=O)N(C3CCCC3)CC(=O)N2Cc2ccco2)ccc1OC(C)C (stereo not given)
9,799,O=C(Nc1cccc(F)c1)C1CC(=O)N(CCc2c[nH]c3ccc(F)cc23)C1 (stereo not given)
10,584,O=C(NCc1cccnc1)C1CCN(c2nc3ccc(-c4cncnc4)nc3s2)CC1
11,1130,CCn1c(C(=O)NCc2ccccc2OC)cc2sc(Cl)cc21
12,772,CCc1cccc(NC(=O)Nc2cnn(-c3ncc(N(C)C)cn3)c2)c1
13,702,COC(=O)c1c(C)[nH]c(C(=O)N2CCC(CC(=O)NCc3ccc(C)o3)CC2)c1C
14,1150,Cc1ccc(-c2noc(CN3C(=O)COc4ccc(Cl)cc43)n2)cc1
15,784,CCNc1nc(N(C)C)nc(-n2cnc(SC)n2)n1
16,843,Cc1nnc2ccc(-c3noc(-c4cccc5[nH]ccc45)n3)cn12
17,752,COc1ccc(C)cc1NC(=O)Cn1nc2cc(-c3ccccc3)nc(C)n2c1=O
18,933,Cc1ccc(C2=NC3(CCN(C(=O)Cc4ccccc4C)CC3)ON2)cc1
19,661,COc1ccc2c(C)c(CC(=O)N3CCC(C(N)=O)CC3)c(=O)oc2c1C
20,616,CC1CN2C=NC(N3CCN(C(=O)Nc4ccccc4C(F)(F)F)CC3)=CC2=N1 (stereo not given)

row,SMILES,RP-LC retention time [s]
1,C[C@@]12N[C@@H](Cc3ccccc31)c1ccccc12,655
